According to patent US12448394B2, “Heterocyclic pyrazole derivatives as type III receptor tyrosine kinase inhibitors” (DEVELOPMENT CENTER FOR BIOTECHNOLOGY, priority 2019, dated 2025):

Columns and labels:
[1] = system: MV4-11 human acute myeloid leukemia cell with FLT3-ITD mutation; test: MV4-11 cell proliferation assay (CellTiter 96); format: cell-based; settings: Homo sapiens, MV4-11, 72 h, MV4-11 cells, 72 hours treatment, CellTiter96; read-out: anti-proliferation activity MV4-11 (FLT3-ITD), IC50 ranking
Experimental: (§1) Inhibitions of cell growths by compounds were measured using CellTiter™-96 assay. The cytotoxicities of compounds of the invention were evaluated in cell line panels with different signaling pathway dependencies, including MV4-11 human acute myeloid leukemia cell with FLT3-ITD mutation, Molm-14 human acute myeloid leukemia cell with FLT3-ITD mutation, THP-1 human acute monocytic leukemia cell with NRAS G12D mutation, A375 melanoma cell with BRAF V600E mutation, and HCC827 NSCLC cell with EGFR exon 19 deletion mutation.
The compounds disclosed herein were tested in MV4-11 cell proliferation assay to determine their cellular potencies against FLT3 signal pathway dependent cell growths. MV4-11 cells are human acute myeloid leukemia (AML) cells harboring ligand-independent FLT3-ITD activating mutation, which renders the abnormal proliferation of AML cells FLT3 signaling pathway dependent. Inhibition of FLT3 kinase activity will result in reduced growths and/or cell deaths. MV4-11 cells (catalog #CRL-9591) were obtained from the American Type Culture Collection (ATCC, Manassas, VA). Briefly, cells were grown in IMDM medium supplemented with 10% heat inactivated fetal bovine serum and incubated at 37° C. in 5% CO2 atmosphere. Cells were allowed to expand until reaching saturation, at which point they were sub-cultured or harvested for assay use.
(§2) MV4-11, Molm-14, THP-1, A375, and HCC827 cells were seeded into 96-well plates at 6500, 25000, 5000, 2000 and 8000 cells/well, respectively, and incubated at 37° C., 5% CO2 overnight. Then, these seeded cells were treated with increasing concentrations of the test compounds and incubated for another 72 hours. At the end of the incubation, CellTiter96® AQueous One Solution Reagent (Promega, […]) was added and incubated for the additional 2˜4 hours. Cell viability was determined by measuring absorbance at 490 nm using EMax® microplate reader (Molecular Devices, San Jose, CA, USA).

[2] = system: THP-1 human acute monocytic leukemia cell with NRAS G12D mutation; test: THP-1 cell proliferation assay (counter screen); format: cell-based; settings: Homo sapiens, THP-1 cells, 72 hours treatment, CellTiter96, read-out: anti-proliferation activity THP-1 NRAS N12D, IC50 ranking
Experimental: as §1
THP-1 cells are human acute monocytic leukemia cells with NRAS G12D mutation, which renders the cell growth independent of class III RTKs signaling. THP-1 cells (catalog #TIB-202) were obtained from the ATCC. Briefly, cells were grown in RPMI 1640 medium supplemented with 10% heat inactivated fetal bovine serum and 0.05 mM 2-mercaptoethanol and incubated at 37° C. in 5% CO2 atmosphere. Cells were allowed to expand until reaching saturation, at which point they were sub-cultured or harvested for assay use.
as §2

[3] = system: A375 melanoma cell with BRAF V600E mutation; test: A375 cell proliferation assay (counter screen); format: cell-based, human; settings: Homo sapiens, A-375, A375 cells, 72 hours treatment, CellTiter96, read-out: anti-proliferation activity A375 BRAF V600E, IC50 ranking
Experimental: as §1
A375 cells are melanoma cells encoding BRFA V600E mutation, which renders the cell growth dependent on BRAF signaling instead of class III RTKs signaling. A375 cells (catalog #CRL-1619) were obtained from the ATCC. Briefly, cells were cultured in DMEM containing 10% FBS and incubated at 37° C. in 5% CO2 atmosphere. Cells were allowed to expand until reaching saturation, at which point they were sub-cultured or harvested for assay use.
as §2

PDGFRα kinase = molecular target: T1, PDGFRα kinase (Homo sapiens, UniProt P16234); test: PDGFRα kinase assay (AlphaScreen); format: biochemical; settings: read-out: Ranking of IC50 values, PDGFRα
T1 construct: purchased SignalChem
Experimental: Inhibition of PDGFRα kinase activity by a test compound disclosed herein was estimated by AlphaScreen (PerkinElmer). Standard assay conditions were 1.5 ng of recombinant PDGFRα kinase (SignalChem) with 6 ng Biotin-conjugated Poly-(Glu 4: Tyr 1) (Cisbio) in the assay buffer (10 μM ATP, 10 mM MOPs, pH 7.0, 0.21 mM EDTA, 0.5% glycerol, 1 mg/mL BSA, 0.01% 2-mercaptoethanol, 0.001% Brij35, 10 mM MgCl2) in a final volume of 25 μL. Reactions were incubated at 30° C. for 30 min and stopped by adding […] of 50 mM EDTA. Analysis of resulting product using an AlphaScreen kit and counted with Enspire Alpha (PerkinElmer). […] The IC50 values of inhibitors were determined after carrying out assays with each compound at serially diluted concentrations in duplication. The results were analyzed using linear regression software (GraphPad Prism 5; GraphPad Software Inc.)

[4] = system: phosphorylation of FLT3 and its down-stream effector STAT5; test: Western blotting of p-FLT3 and p-STAT5 in MV4-11 cells; format: cell-based; settings: Homo sapiens; at 30 nM treatment, 3 hours, FLT3-ITD positive MV4-11 leukemia cells; read-out: inhibition activity against phosphorylation of FLT3 and its down-stream effector STAT5
Experimental: The potent compounds of formula (I) in EXAMPLE 2 were evaluated, by western blotting assay, for their cellular potencies against phosphorylation of FLT3 and its down-stream effector STAT5 in MV4-11 leukemia cell line with constitutive activation of FLT3 signaling. For western blotting experiments, MV4-11 cells were cultured in IMDM medium containing 0.1% FBS overnight. On the assay day, three million cells were treated with or without compounds for 3 hours in 15 mL tubes. Then, the whole cell lysates were harvested, following extraction by adding 2×SDS Sample Buffer and boiling on hot plate at 105° C. for 15 minutes. The resulting cell lysates were separated by SDS-PAGE electrophoresis and transferred to PVDF membrane. Protein expression was detected using immunoblot with corresponding primary antibody and secondary antibody following the standard procedures. Antibody against p-FLT3 (Tyr-591), anti-rabbit IgG HRP-linked secondary antibody, and anti-mouse IgG HRP-linked secondary antibody were purchased from Cell Signaling Technology. Antibody against p-STAT5 (Tyr-694) was purchased from BD biosciences. Antibody against actin was purchased from R&D system. […] Band intensities of western blot were also quantified by ChemiDoc™ MP Imaging System. Relative intensities of bandscorresponding to drug treatments at a single concentration (30 nM) were compared to the DMSO control group. The percentage (%) inhibition at each drug concentration was calculated using the formula: Percentage(%)inhibition=(1−Relative intensity)×100.

T1 sequence (P16234 24-1089): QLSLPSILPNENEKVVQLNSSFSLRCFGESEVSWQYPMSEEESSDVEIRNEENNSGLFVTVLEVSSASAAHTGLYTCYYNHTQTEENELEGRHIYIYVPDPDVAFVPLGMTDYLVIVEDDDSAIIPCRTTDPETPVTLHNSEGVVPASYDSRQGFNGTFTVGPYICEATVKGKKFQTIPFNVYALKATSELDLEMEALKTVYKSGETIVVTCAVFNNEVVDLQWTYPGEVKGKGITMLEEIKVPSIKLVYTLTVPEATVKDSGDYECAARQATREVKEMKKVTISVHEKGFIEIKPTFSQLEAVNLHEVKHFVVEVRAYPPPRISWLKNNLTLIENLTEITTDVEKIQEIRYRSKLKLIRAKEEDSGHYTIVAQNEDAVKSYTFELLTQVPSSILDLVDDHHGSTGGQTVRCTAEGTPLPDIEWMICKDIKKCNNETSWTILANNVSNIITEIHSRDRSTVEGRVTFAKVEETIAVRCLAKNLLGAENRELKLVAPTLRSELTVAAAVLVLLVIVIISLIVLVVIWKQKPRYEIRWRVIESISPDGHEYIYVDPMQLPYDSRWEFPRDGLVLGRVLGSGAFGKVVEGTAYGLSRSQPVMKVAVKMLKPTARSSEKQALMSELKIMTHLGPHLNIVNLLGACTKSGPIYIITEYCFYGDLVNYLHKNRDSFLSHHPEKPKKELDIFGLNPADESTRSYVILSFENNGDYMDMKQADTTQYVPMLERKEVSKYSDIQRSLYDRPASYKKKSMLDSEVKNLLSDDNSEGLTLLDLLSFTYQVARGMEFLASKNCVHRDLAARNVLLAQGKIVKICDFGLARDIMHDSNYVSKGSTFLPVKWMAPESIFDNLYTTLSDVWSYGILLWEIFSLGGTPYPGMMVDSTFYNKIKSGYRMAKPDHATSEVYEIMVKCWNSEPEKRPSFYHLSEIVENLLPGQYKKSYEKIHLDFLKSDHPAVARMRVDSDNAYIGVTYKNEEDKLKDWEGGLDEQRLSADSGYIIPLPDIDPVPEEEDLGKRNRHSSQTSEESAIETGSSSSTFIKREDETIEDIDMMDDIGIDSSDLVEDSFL

| Structure (SMILES) | IC50 [1] [nM] | IC50 (PDGFRα kinase) [nM] | IC50 [2] [nM] | IC50 [3] [nM] | inhibition at 0.03 µM [4] [%] |
| --- | --- | --- | --- | --- | --- |
| C[C@@H]1CN(Cc2ccc(-c3cc4c(s3)Cc3c(-c5ccc6cn[nH]c6c5)n[nH]c3-4)cc2)C[C@H](C)O1 [Compound 7, (2S,6R)-4-(4-(3-(1H-indazol-6-yl)-1,4-dihydrothieno[2′,3′:4,5]cyclopenta [1,2-c]pyrazol-6-yl)benzyl)-2,6-dimethylmorpholine] | < 30 | 1 to 10 | > 10000 | > 10000 | > 50 |
| Cn1ncc2ccc(-c3n[nH]c4c3Cc3sc(-c5ccc(CN6CCOCC6)cc5)cc3-4)cc21 [Compound 8, 4-(4-(3-(1-methyl-1H-indazol-6-yl)-1,4-dihydro-thieno[2′,3′:4,5]cyclopenta [1,2-c]pyrazol-6-yl)benzyl) morpholine] | < 30 | 1 to 10 | > 10000 | > 10000 | > 50 |
| C[C@@H]1CN(Cc2ccc(-c3cc4c(s3)Cc3c(-c5ccc6cnn(C)c6c5)n[nH]c3-4)cn2)C[C@H](C)O1 [Compound 9, (2S,6R)-2,6-dimethyl-4-((5-(3-(1-methyl-lH-indazol-6-yl)-1,4-dihydro-thieno[2′,3′:4,5]cyclopenta [1,2-c]pyrazol-6-yl)pyridin-2-yl)methyl) morpholine] | < 30 | 1 to 10 | > 10000 | > 10000 | > 50 |
| Cn1ncc2ccc(-c3n[nH]c4c3Cc3sc(-c5ccc(CN6CCOCC6)nc5)cc3-4)cc21 [Compound 10, 4-((5-(3-(1-methyl-1H-indazol-6-yl)-1,4-dihydro-thieno[2′,3′:4,5]cyclopenta [1,2-c]pyrazol-6-yl)pyridin-2-yl)methyl)morpholine] | < 30 | 1 to 10 | > 10000 | > 10000 | > 50 |
| C[C@@H]1CN(Cc2cccc(-c3cc4c(s3)Cc3c(-c5ccc6cnn(C)c6c5)n[nH]c3-4)c2)C[C@H](C)O1 [Compound 12, (2S,6R)-2,6-dimethyl-4-(3-(3-(1-methyl-1H-indazol-6-yl)-1,4-dihydrothieno [2′,3′:4,5]cyclopenta[1,2-c]pyrazol-6-yl)benzyl) morpholine] | 30 to 100 | 30 to 100 | > 10000 | > 10000 | > 50 |
| Cn1ncc2ccc(-c3n[nH]c4c3Cc3sc(-c5cccc(CN6CCOCC6)c5)cc3-4)cc21 [Compound 13, 4-(3-(3-(1-methyl-1H-indazol-6-yl)-1,4-dihydro-thieno[2′,3′:4,5]cyclopenta [1,2-c]pyrazol-6-yl)benzyl) morpholine] | 30 to 100 | 10 to 30 | > 10000 | > 10000 | > 50 |
| CN1CCN(C(=O)c2ccc(-c3cc4c(s3)Cc3c(-c5ccc6cnn(C)c6c5)n[nH]c3-4)cc2)CC1 [Compound 15, (4-(3-(1-methyl-1H-indazol-6-yl)-1,4-dihydrothieno[2′,3′:4,5]cyclopenta[1,2-c]pyrazol-6-yl)phenyl)(4-methyl-piperazin-1-yl)methanone] | < 30 | 1 to 10 | > 10000 | > 10000 | > 50 |

Further lines, with some results ahead:

| IC50 [1] [nM] | IC50 (PDGFRα kinase) [nM] | Structure (SMILES) | IC50 [2] [nM] | IC50 [3] [nM] | inhibition at 0.03 µM [4] [%] |
| --- | --- | --- | --- | --- | --- |
| < 30 | 1 to 10 | C[C@@H]1CN(Cc2ccc(-c3cc4c(s3)Cc3c(-c5ccc6cn[nH]c6c5)n[nH]c3-4)cn2)C[C@H](C)O1 [Compound 16, (2R,6S)-4-((5-(3-(1H-indazol-6-yl)-1,4-dihydro-thieno[2′,3′:4,5]cyclopenta [1,2-c]pyrazol-6-yl)pyridin-2-yl)methyl)-2,6-dimethylmorpholine] | > 10000 | > 10000 | > 50 |
| < 30 | 10 to 30 | Cc1cc(-c2cc3c(s2)Cc2c(-c4ccc5cnn(C)c5c4)n[nH]c2-3)ccn1 [Compound 17, 3-(1-methyl-1H-indazol-6-yl)-6-(2-methylpyridin-4-yl)-1,4-dihydrothieno [2′,3′:4,5]cyclopenta[1,2-c] pyrazole] | > 10000 | > 10000 | > 50 |
| < 30 | 1 to 10 | c1cc(CN2CCOCC2)ncc1-c1cc2c(s1)Cc1c(-c3ccc4cn[nH]c4c3)n[nH]c1-2 [Compound 18, 4-((5-(3-(1H-indazol-6-yl)-1,4-dihydrothieno[2′,3′:4,5]cyclopenta[1,2-c]pyrazol-6-yl)pyridin-2-yl)methyl) morpholine] | > 10000 | > 10000 | > 50 |
| < 30 | 1 to 10 | C[C@@H]1CN(C(=O)c2ccc(-c3cc4c(s3)Cc3c(-c5ccc6cnn(C)c6c5)n[nH]c3-4)cc2)C[C@H](C)O1 [Compound 19, ((2S,6R)-2,6-dimethyl-morpholino)(4-(3-(1-methyl-1H-indazol-6-yl)-1,4-dihydrothieno[2′,3′:4,5]cyclopenta[1,2-c]pyrazol-6-yl)phenyl)methanone] | > 10000 | > 10000 | > 50 |
| < 30 | 1 to 10 | CC(c1ccc(-c2cc3c(s2)Cc2c(-c4ccc5cnn(C)c5c4)n[nH]c2-3)cc1)N1CCOCC1 (centres unmarked) [Compound 20, 4-(1-(4-(3-(1-methyl-1H-indazol-6-yl)-1,4-dihydro-thieno[2′,3′:4,5]cyclopenta [1,2-c]pyrazol-6-yl)phenyl)ethyl)morpholine] | > 10000 | > 10000 | > 50 |
| < 30 | 1 to 10 | Cn1ncc2ccc(-c3n[nH]c4c3Cc3sc(-c5ccc(C(=O)N6CCOCC6)cc5)cc3-4)cc21 [Compound 21, (4-(3-(1-methyl-1H-indazol-6-yl)-1,4-dihydro-thieno[2′,3′:4,5]cyclopenta [1,2-c]pyrazol-6-yl)phenyl) (morpholino)methanone] | > 10000 | > 10000 | > 50 |
